According to the NIST ThermoML archive (doi:10.1021/je900550v):

Details: 101.33 kPa, Liquid; for speed of sound: Pulse-echo method; for mass density: Vibrating tube method

CC(C)C(=O)[O-].C[NH2+]CCO [2-hydroxy-N-methylethanaminium isobutyrate]
Details	mass density [kg/m3]	speed of sound [m/s]	viscosity [mPa·s]
278.15 K	1056.12	1670.2	–
278.4 K	1055.96	1669.4	–
278.65 K	1055.8	1668.6	–
278.9 K	1055.64	1667.8	–
279.15 K	1055.48	1667	–
279.4 K	1055.32	1666.2	–
279.65 K	1055.16	1665.4	–
279.9 K	1055	1664.7	–
280.15 K	1054.85	1663.9	–
280.4 K	1054.68	1663.1	–
280.65 K	1054.52	1662.3	–
280.9 K	1054.36	1661.5	–
281.15 K	1054.2	1660.8	–
281.4 K	1054.04	1660	–
281.65 K	1053.88	1659.2	–
281.9 K	1053.72	1658.5	–
282.15 K	1053.56	1657.7	–
282.4 K	1053.4	1657	–
282.65 K	1053.24	1656.2	–
282.9 K	1053.08	1655.4	–
283.15 K	1052.92	1654.7	–
283.4 K	1052.76	1653.9	–
283.65 K	1052.6	1653.2	–
283.9 K	1052.43	1652.4	–
284.15 K	1052.27	1651.7	–
284.4 K	1052.11	1650.9	–
284.65 K	1051.95	1650.2	–
284.9 K	1051.79	1649.4	–
285.15 K	1051.63	1648.7	–
285.4 K	1051.47	1647.9	–
285.65 K	1051.31	1647.2	–
285.9 K	1051.14	1646.4	–
286.15 K	1050.98	1645.9	–
286.4 K	1050.82	1645.2	–
286.65 K	1050.66	1644.4	–
286.9 K	1050.49	1643.7	–
287.15 K	1050.33	1642.9	–
287.4 K	1050.17	1642.2	–
287.65 K	1050.01	1641.5	–
287.9 K	1049.85	1640.7	–
288.15 K	1049.68	1640	301.35
288.4 K	1049.52	1639.3	–
288.65 K	1049.36	1638.5	–
288.9 K	1049.19	1637.8	–
289.15 K	1049.03	1637.1	–
289.4 K	1048.87	1636.3	–
289.65 K	1048.72	1635.6	–
289.9 K	1048.56	1634.9	–
290.15 K	1048.41	1634.2	–
290.4 K	1048.25	1633.4	–
290.65 K	1048.09	1632.7	–
290.9 K	1047.94	1632	–
291.15 K	1047.79	1631.2	–
291.4 K	1047.63	1630.5	–
291.65 K	1047.47	1629.8	–
291.9 K	1047.31	1629.1	–
292.15 K	1047.16	1628.4	–
292.4 K	1047	1627.7	–
292.65 K	1046.84	1626.9	–
292.9 K	1046.68	1626.2	–
293.15 K	1046.53	1625.5	220.69
293.4 K	1046.37	1624.8	–
293.65 K	1046.21	1624.1	–
293.9 K	1046.06	1623.4	–
294.15 K	1045.9	1622.7	–
294.4 K	1045.74	1622	–
294.65 K	1045.59	1621.2	–
294.9 K	1045.43	1620.5	–
295.15 K	1045.27	1619.8	–
295.4 K	1045.11	1619.1	–
295.65 K	1044.96	1618.4	–
295.9 K	1044.8	1617.7	–
296.15 K	1044.63	1617	–
296.4 K	1044.48	1616.3	–
296.65 K	1044.32	1615.6	–
296.9 K	1044.17	1614.9	–
297.15 K	1044.01	1614.2	–
297.4 K	1043.84	1613.4	–
297.65 K	1043.68	1612.7	–
297.9 K	1043.52	1612	–
298.15 K	1043.37	1611.3	163.08
298.4 K	1043.2	1610.6	–
298.65 K	1043.05	1609.9	–
298.9 K	1042.89	1609.2	–
299.15 K	1042.73	1608.5	–
299.4 K	1042.57	1607.8	–
299.65 K	1042.41	1607.1	–
299.9 K	1042.25	1606.3	–
300.15 K	1042.09	1605.6	–
300.4 K	1041.93	1604.9	–
300.65 K	1041.77	1604.2	–
300.9 K	1041.61	1603.5	–
301.15 K	1041.45	1602.8	–
301.4 K	1041.29	1602.1	–
301.65 K	1041.13	1601.4	–
301.9 K	1040.96	1600.7	–
302.15 K	1040.81	1600	–
302.4 K	1040.64	1599.3	–
302.65 K	1040.49	1598.6	–
302.9 K	1040.32	1597.8	–
303.15 K	1040.17	1597.2	124.67
303.4 K	1040	1596.4	–
303.65 K	1039.84	1595.7	–
303.9 K	1039.68	1595	–
304.15 K	1039.52	1594.3	–
304.4 K	1039.36	1593.6	–
304.65 K	1039.19	1592.9	–
304.91 K	1039.03	1592.2	–
305.15 K	1038.87	1591.5	–
305.4 K	1038.71	1590.8	–
305.65 K	1038.55	1590.1	–
305.9 K	1038.39	1589.4	–
306.15 K	1038.23	1588.7	–
306.4 K	1038.06	1588	–
306.65 K	1037.9	1587.3	–
306.9 K	1037.74	1586.6	–
307.15 K	1037.58	1585.9	–
307.4 K	1037.41	1585.2	–
307.65 K	1037.25	1584.5	–
307.9 K	1037.09	1583.8	–
308.15 K	1036.92	1583.1	98.28
308.4 K	1036.77	1582.4	–
308.65 K	1036.6	1581.7	–
308.9 K	1036.44	1581	–
309.15 K	1036.28	1580.3	–
309.4 K	1036.11	1579.6	–
309.65 K	1035.95	1578.8	–
309.9 K	1035.79	1578.2	–
310.15 K	1035.62	1577.5	–
310.4 K	1035.46	1576.7	–
310.65 K	1035.29	1576	–
310.91 K	1035.13	1575.3	–
311.16 K	1034.97	1574.6	–
311.4 K	1034.81	1573.9	–
311.65 K	1034.64	1573.2	–
311.91 K	1034.48	1572.5	–
312.16 K	1034.32	1571.8	–
312.41 K	1034.15	1571.1	–
312.66 K	1033.99	1570.4	–
312.91 K	1033.82	1569.7	–
313.15 K	–	–	75.78
313.16 K	1033.66	1569	–
313.4 K	1033.49	1568.3	–
313.66 K	1033.33	1567.5	–
313.9 K	1033.16	1566.8	–
314.15 K	1033	1566.1	–
314.4 K	1032.84	1565.4	–
314.65 K	1032.67	1564.7	–
314.9 K	1032.51	1564	–
315.15 K	1032.35	1563.3	–
315.41 K	1032.18	1562.6	–
315.65 K	1032.01	1561.9	–
315.91 K	1031.85	1561.2	–
316.16 K	1031.68	1560.5	–
316.41 K	1031.52	1559.8	–
316.66 K	1031.35	1559.1	–
316.91 K	1031.18	1558.4	–
317.16 K	1031.02	1557.7	–
317.4 K	1030.86	1557	–
317.66 K	1030.69	1556.2	–
317.91 K	1030.53	1555.5	–
318.15 K	–	–	60.1
318.16 K	1030.36	1554.8	–
318.41 K	1030.19	1554.1	–
318.65 K	1030.03	1553.4	–
318.9 K	1029.87	1552.7	–
319.16 K	1029.7	1552	–
319.41 K	1029.53	1551.3	–
319.65 K	1029.37	1550.6	–
319.91 K	1029.2	1549.9	–
320.16 K	1029.03	1549.2	–
320.41 K	1028.87	1548.4	–
320.65 K	1028.7	1547.7	–
320.91 K	1028.54	1547	–
321.15 K	1028.37	1546.3	–
321.41 K	1028.2	1545.6	–
321.66 K	1028.03	1544.9	–
321.9 K	1027.87	1544.2	–
322.15 K	1027.7	1543.4	–
322.41 K	1027.54	1542.7	–
322.65 K	1027.37	1542	–
322.91 K	1027.2	1541.3	–
323.15 K	–	–	47.96
323.16 K	1027.03	1540.6	–
323.41 K	1026.86	1539.9	–
323.65 K	1026.69	1539.2	–
323.91 K	1026.53	1538.5	–
324.16 K	1026.36	1537.7	–
324.41 K	1026.19	1537	–
324.65 K	1026.03	1536.3	–
324.9 K	1025.86	1535.6	–
325.16 K	1025.69	1534.9	–
325.4 K	1025.52	1534.2	–
325.66 K	1025.36	1533.5	–
325.9 K	1025.19	1532.8	–
326.16 K	1025.02	1532.1	–
326.41 K	1024.85	1531.4	–
326.66 K	1024.68	1530.7	–
326.9 K	1024.52	1529.9	–
327.16 K	1024.34	1529.2	–
327.4 K	1024.18	1528.5	–
327.66 K	1024.01	1527.8	–
327.9 K	1023.84	1527.1	–
328.15 K	1023.67	1526.4	–
328.41 K	1023.5	1525.7	–
328.66 K	1023.33	1524.9	–
328.9 K	1023.16	1524.2	–
329.16 K	1022.99	1523.5	–
329.4 K	1022.82	1522.8	–
329.65 K	1022.65	1522	–
329.9 K	1022.48	1521.3	–
330.16 K	1022.32	1520.6	–
330.41 K	1022.14	1519.9	–
330.66 K	1021.98	1519.1	–
330.91 K	1021.81	1518.4	–
331.16 K	1021.63	1517.7	–
331.41 K	1021.47	1517	–
331.66 K	1021.29	1516.2	–
331.91 K	1021.13	1515.5	–
332.16 K	1020.95	1514.8	–
332.41 K	1020.78	1514.1	–
332.66 K	1020.61	1513.4	–
332.91 K	1020.44	1512.7	–
333.16 K	1020.27	1511.9	–
333.41 K	1020.1	1511.2	–
333.66 K	1019.93	1510.5	–
333.91 K	1019.76	1509.8	–
334.16 K	1019.59	1509.1	–
334.41 K	1019.42	1508.3	–
334.66 K	1019.24	1507.6	–
334.91 K	1019.07	1506.9	–
335.16 K	1018.9	1506.2	–
335.41 K	1018.73	1505.5	–
335.66 K	1018.56	1504.7	–
335.91 K	1018.38	1504	–
336.16 K	1018.22	1503.3	–
336.41 K	1018.04	1502.6	–
336.66 K	1017.87	1501.9	–
336.9 K	1017.7	1501.2	–
337.16 K	1017.53	1500.4	–
337.4 K	1017.35	1499.7	–
337.66 K	1017.18	1499	–
337.9 K	1017.01	1498.3	–
338.15 K	1016.84	1497.7	–
